In PubChem BioAssay AID504526 (Southern Research Specialized Biocontainment Screening …, 2011):
Several values for one entry are separate records, joined by “and”; a condition that tells them apart may be missing. Equal entries are not always repeated. Activity calls are given as the source filed them. The rule behind the calls is not given here.

What follows are compounds tested on RSV-infected cells, CPE inhibition (cell viability) (assay: RSV cytopathic effect inhibitors, dose response, cell-based, synthesized compounds, set 6 (AID 504526)).

Structure (SMILES) | IC50
COCCNC(=O)c1ccc(Cn2c(=O)c3ccccc3n(Cc3ccc(C)cc3)c2=O)cc1 | 2.32 µM
Cc1ccc(C(F)(F)F)cc1NC(=O)[C@@H]1CCCN1S(=O)(=O)c1cccc2cccnc12 | > 50 µM (inactive)
Cc1ccccc1CNC(=O)C1CCN(S(=O)(=O)c2cccc3nonc23)CC1 | > 50 µM (inactive)
COc1ccccc1NCC(=O)Nc1cc(S(=O)(=O)N2CCOCC2)ccc1N1CCOCC1 | > 50 µM (inactive)
COc1ccccc1CNC(=O)C1CCN(S(=O)(=O)c2cccc3cccnc23)CC1 | > 50 µM (inactive)
Cc1cccc(C)c1NC(=O)[C@@H]1CCCN1S(=O)(=O)c1cccc2cccnc12 | 34.6 µM
COc1ccc(C)cc1NC(=O)[C@@H]1CCCN1S(=O)(=O)c1cccc2cccnc12 | > 50 µM (inactive)
O=C(O)C1CC=CCC1C(=O)Nc1ccc(S(=O)(=O)N2CCCc3ccccc32)cc1 (centres undefined) | 31.4 µM
COc1ccccc1CNC(=O)C1CCN(S(=O)(=O)c2cccc3nonc23)CC1 | 3.6 µM and 4.7 µM
Cc1ccc(C(C)C)cc1NC(=O)[C@@H]1CCCN1S(=O)(=O)c1cccc2cccnc12 | > 50 µM (inactive)
COc1ccccc1CNC(=O)C1CCN(Cc2cccc3nonc23)CC1 | > 50 µM (inactive)
COc1ccc(C)c(NC(=O)[C@@H]2CCCN2S(=O)(=O)c2cccc3cccnc23)c1 | 3.51 µM
COCCCNC(=O)c1ccc(Cn2c(=O)c3ccc(Cl)cc3n(Cc3ccc(C)cc3)c2=O)cc1 | > 50 µM (inactive)
Cc1ccc(Cl)cc1NC(=O)[C@@H]1CCCN1S(=O)(=O)c1cccc2cccnc12 | 0.22 µM
COc1ccccc1CNC(=O)C1CCN(S(=O)(=O)c2ccccc2)CC1 | > 50 µM (inactive)
O=C(NCc1ccccc1Cl)C1CCN(S(=O)(=O)c2cccc3nonc23)CC1 | 6.9 µM
COCCCNC(=O)c1ccc(Cn2c(=O)c3ccccc3n(Cc3ccccc3)c2=O)cc1 | > 50 µM (inactive)
COc1ccccc1CNC(=O)C1CCN(S(=O)(=O)c2cccc3scnc23)CC1 | > 50 µM (inactive)
Cc1ccc(Cl)c(NC(=O)[C@@H]2CCCN2S(=O)(=O)c2cccc3cccnc23)c1 | > 50 µM (inactive)
COc1ccccc1CNC(=O)[C@@H]1CCCN1S(=O)(=O)c1cccc2cccnc12 | 18.8 µM
Cc1ccc(C(C)(C)C)cc1NC(=O)[C@@H]1CCCN1S(=O)(=O)c1cccc2cccnc12 | > 50 µM (inactive)
COc1cccc(CNC(=O)C2CCN(S(=O)(=O)c3cccc4nonc34)CC2)c1 | > 50 µM (inactive)
Cc1ccc(C)c(NC(=O)[C@@H]2CCCN2S(=O)(=O)c2cccc3cccnc23)c1 | 5.1 µM
COc1ccc(CNC(=O)C2CCN(S(=O)(=O)c3cccc4nonc34)CC2)cc1 | > 50 µM (inactive)
